These results are taken from patent US20150306068A1, “COMPOUNDS AND RELATED METHODS FOR TREATMENT OF NEURODEGENERATIVE DISEASES” (priority 2013, published 2015).

The subject of experiment [1] is wild-type human tau. Nature of the experiment: Western blot of tau levels in HeLa cells transfected with wild-type human tau. Format: cell-based. The conditions noted are these: treated 24 hours; for phosphorylated (pS199-202) wild type tau level: HeLa cells transfected with wild-type human tau, various doses, pS199-202 antibody; for C-terminal tau level (Tau 46 antibody) / N-terminal tau level (Tau H-150 antibody): human tau transfected HeLa cells, wild type and P301L not distinguished. As to the method:
(§1) Compounds effects on tau activity/level were determine by a previously described method (Jinwal et al J. Neurosci. 2009 Sep. 30; 29(39):12079-88). In brief, human tau transfected HeLa Cells were treated with Compounds for 24 hours. Cells were harvested by using MPER reagent containing protease inhibitor and phosphatase inhibitor. Samples were analyzed by western blot. pS199-202 antibody was used to detect phospho tau level. Total tau levels were detected by tau H-150 &/or tau 46 antibodies.
(§2) HeLa cells were transfected with wild-type human tau (A) and mutant P301L human tau (B) (FIG. 1). After 24 hours, cells were treated with either palmadorin M or beauvericin for 24 hours.

Experiment [2] relates to mutant P301L human tau. Nature of the experiment: Western blot of tau levels in HeLa cells transfected with mutant P301L human tau. Format: cell-based. The following applies: treated 24 hours, various doses, pS199-202 antibody. The method, then:
as §1, §2
(In western blotting, separated proteins are transferred to a membrane and probed.)

On to `CC(C)[C@H]1OC(=O)[C@H](Cc2ccccc2)N(C)C(=O)[C@@H](C(C)C)OC(=O)[C@H](Cc2ccccc2)N(C)C(=O)[C@@H](C(C)C)OC(=O)[C@H](Cc2ccccc2)N(C)C1=O` [beauvericin], for which, in experiment [1], the “phosphorylated (pS199-202) wild type tau level” value is given as “potent reduction”, the “C-terminal tau level (Tau 46 antibody)” value was “moderate change in tau level” and the “N-terminal tau level (Tau H-150 antibody)” value is recorded as “increase in tau level”. In addition, the “phosphorylated (pS199-202) mutant P301L tau level” value in experiment [2] was “potent reduction”.

In the case of `C=C1CC[C@@H]2C(C)(C)CCC[C@]2(C)[C@@H]1CC/C(C)=C/C(=O)OC(CO)CO` [palmadorin M], in experiment [1], the “phosphorylated (pS199-202) wild type tau level” value is reported as “potent reduction”, the “C-terminal tau level (Tau 46 antibody)” value is on record as “moderate change in tau level” and the “N-terminal tau level (Tau H-150 antibody)” value is listed as “increase in tau level”. In addition, the “phosphorylated (pS199-202) mutant P301L tau level” value in experiment [2] was “potent reduction”.
